According to US10316039B2, “P2X3 and/or P2X2/3 compounds and methods” (Asana Biosciences, LLC, priority 2013, dated 2019):

What was measured:
P2X2/3 = target: T1, P2X2/3 (Homo sapiens, UniProt P56373+Q9UBL9); experiment: P2X2/3 FLIPR intracellular calcium assay; assay type: cell-based; settings: agonist at EC75, species (human or rat) not given
T1 sequence (Q9UBL9 1-471): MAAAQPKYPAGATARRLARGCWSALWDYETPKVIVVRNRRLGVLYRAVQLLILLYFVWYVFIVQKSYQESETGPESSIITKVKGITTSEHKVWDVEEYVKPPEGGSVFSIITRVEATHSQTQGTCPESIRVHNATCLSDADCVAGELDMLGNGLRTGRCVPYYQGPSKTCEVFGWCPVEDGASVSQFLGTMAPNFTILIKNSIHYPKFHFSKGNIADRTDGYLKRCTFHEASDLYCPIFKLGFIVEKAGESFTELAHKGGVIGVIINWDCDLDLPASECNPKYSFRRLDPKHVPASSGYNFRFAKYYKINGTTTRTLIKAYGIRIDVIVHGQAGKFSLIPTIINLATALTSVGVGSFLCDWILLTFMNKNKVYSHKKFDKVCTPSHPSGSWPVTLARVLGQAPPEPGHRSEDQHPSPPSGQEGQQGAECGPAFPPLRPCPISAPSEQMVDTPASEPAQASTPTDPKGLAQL
T1 sequence (P56373 1-397): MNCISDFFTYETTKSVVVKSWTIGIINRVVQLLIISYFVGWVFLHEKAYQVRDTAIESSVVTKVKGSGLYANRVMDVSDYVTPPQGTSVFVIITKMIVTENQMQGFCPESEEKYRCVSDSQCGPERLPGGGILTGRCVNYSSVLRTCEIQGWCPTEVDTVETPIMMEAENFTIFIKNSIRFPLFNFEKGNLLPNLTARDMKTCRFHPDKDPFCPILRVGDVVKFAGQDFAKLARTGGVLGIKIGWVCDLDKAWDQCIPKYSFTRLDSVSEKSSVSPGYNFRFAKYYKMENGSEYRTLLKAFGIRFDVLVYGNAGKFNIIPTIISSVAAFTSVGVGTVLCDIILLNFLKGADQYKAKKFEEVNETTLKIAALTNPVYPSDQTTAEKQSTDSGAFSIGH
Procedure, shortened: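 Stable human P2X2/3 TRex293 cells (doxycycline-induced) loaded with Calcium 4 dye; compounds, 11-point half-log series from 2 mM top stock, preincubated 15 min at RT in HBSS/HEPES pH 7.4 with 1.8 mM CaCl2. Agonist added at EC75; fluorescence change versus no-compound wells gave IC50.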

P2X3 = target: T2, P2X3 (UniProt P56373); experiment: P2X3 FLIPR intracellular calcium assay; assay type: cell-based; settings: agonist at EC75, species (human or rat) not given
T2 sequence (P56373 1-397): T1 sequence (P56373 1-397)
Procedure, shortened: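 Human P2X3-HEK, human P2X2/3-TRex293, rat P2X2/3-TRex293 or rat P2X3 TRex-CHO cells loaded with Calcium 4 dye (1.8 mM probenecid, pH 7.4).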

IC50 (P2X2/3) [nM]	IC50 (P2X3) [nM]	Compound
1 to 100	1 to 100	Cc1ccc(-c2cnc3c(-n4nnnc4C(C)(F)F)cc(C(=O)N[C@@H](C)c4nnc[nH]4)cn23)s1 [Example 182]
100 to 1000	100 to 1000	CC1CCN(c2cc(C(=O)N[C@@H](C)c3nnc[nH]3)cn3c(-c4ccc(Cl)s4)cnc23)CC1 [Example 118]
1000 to 10000	1 to 100	Cc1ccc(-c2cnc3c(N4CCC(C(F)(F)F)CC4)cc(C(=O)N[C@@H](C)c4nnc[nH]4)cn23)s1 [Example 134]
1 to 100	1 to 100	C[C@H](NC(=O)c1cc(-n2nnnc2C(F)F)c2ncc(-c3ccc(Cl)s3)n2c1)c1nnc[nH]1 [Example 170]
100 to 1000	100 to 1000	CCc1nnnn1-c1cc(C(=O)NCc2ccc(C3CC3)nc2)cn2c(-c3ccc(C)s3)cnc12 [Example 154]
100 to 1000	1 to 100	CCC(=O)N(C)c1cc(C(=O)N[C@@H](C)c2nnc[nH]2)cn2c(-c3ccc(C)s3)cnc12 [Example 187]
1 to 100	> 10000	Cc1ccc(-c2cnc3c(-n4nnnc4C4CCC4)cc(C(=O)NCc4ccn(C)c(=O)c4)cn23)s1 [Example 161]
1 to 100	1 to 100	Cc1noc(C)c1-c1cc(C(=O)N[C@@H](C)c2nnc[nH]2)cn2c(-c3ccc(Cl)s3)cnc12 [Example 107]
1 to 100	1 to 100	CC[C@H](NC(=O)c1cc(-n2nnnc2C(F)F)c2ncc(-c3ccc(C)s3)n2c1)c1nnc[nH]1 [Example 171]
100 to 1000	1 to 100	Cc1ccc(-c2cnc3c(N4CCC(CF)CC4)cc(C(=O)N[C@@H](C)c4nnc[nH]4)cn23)s1 [Example 133]
100 to 1000	1 to 100	CC[C@H](NC(=O)c1cc(N2CCC(OC)CC2)c2ncc(-c3ccc(C)s3)n2c1)c1nnc[nH]1 [Example 146]
100 to 1000	100 to 1000	Cc1ccc(-c2cnc3c(NC4CCCC4)cc(C(=O)N[C@@H](C)c4nnc[nH]4)cn23)s1 [Example 135]
100 to 1000	100 to 1000	Cc1ncc(CNC(=O)c2cc(-n3nnnc3C(F)F)c3ncc(-c4ccc(Cl)s4)n3c2)cn1 [Example 176]
1 to 100	1 to 100	Cc1ccc(-c2cnc3c(-n4nnnc4C(F)F)cc(C(=O)N[C@@H](C)c4nnc[nH]4)cn23)s1 [Example 168]
1 to 100	1 to 100	Cc1ccc(-c2cnc3c(-n4nnnc4CC4CC4)cc(C(=O)N[C@@H](C)c4nnc[nH]4)cn23)s1 [Example 166]
100 to 1000	1 to 100	Cc1ccccc1-c1cnc2c(N3CCC(C)CC3)cc(C(=O)NCc3ccc(C)[n+]([O-])c3)cn12 [Example 150]
1 to 100	1 to 100	Cc1ccc(-c2cnc3c(-c4c(C)n[nH]c4C)cc(C(=O)N[C@@H](C)c4nnc[nH]4)cn23)s1 [Example 110]
100 to 1000	1 to 100	COC1CCN(c2cc(C(=O)N[C@@H](C)c3nnc[nH]3)cn3c(-c4ccc(C)s4)cnc23)CC1 [Example 140]
1 to 100	> 10000	Cc1ccc(CNC(=O)c2cc(-n3nnnc3C3CCC3)c3ncc(-c4ccc(C)s4)n3c2)cn1 [Example 155]
1000 to 10000	1 to 100	CCc1nnnn1-c1cc(C(=O)NC(C)c2cnccn2)cn2c(-c3ccc(C)s3)cnc12 (stereo not shown) [Example 162]

Second part, the molecule before the results:

Compound	IC50 (P2X2/3) [nM]	IC50 (P2X3) [nM]
Cc1ccccc1-c1cnc2c(N3CCC(C)CC3)cc(C(=O)N[C@@H](C)c3nnc[nH]3)cn12 [Example 15, (S)—N-(1-(4H-1,2,4-Triazol-3-yl)ethyl)-8-(4-methylpiperidin-1-yl)-3-(o-tolyl)imidazo[1,2-a]pyridine-6-carboxamide]	1000 to 10000	100 to 1000
COc1ncc(CNC(=O)c2cc(-n3nncc3C(F)(F)F)c3ncc(-c4ncc(C)s4)n3c2)cn1 [Example 86]	100 to 1000	100 to 1000
Cc1cnc(CNC(=O)c2cc(-n3nncc3C(F)F)c3ncc(-c4ccc(C)o4)n3c2)cn1 [Example 78]	1 to 100	1 to 100
CCc1cnnn1-c1cc(C(=O)N[C@@H](C)c2nnc[nH]2)cn2c(-c3ccc(C)o3)cnc12 [Example 62]	100 to 1000	1 to 100
Cc1cnc(-c2cnc3c(-n4nncc4C(F)F)cc(C(=O)N[C@@H](C)c4nnc[nH]4)cn23)s1 [Example 53]	1 to 100	1 to 100
Cc1ccc(-c2cnc3c(Nc4ccccc4)cc(C(=O)NCc4ccn(C)c(=O)c4)cn23)s1 [Example 90]	1000 to 10000	1 to 100
Cc1ccc(-c2cnc3c(-n4nncc4C(F)F)cc(C(=O)N[C@@H](C)c4nnco4)cn23)s1 [Example 14, (S)—N-(1-(1,3,4-Oxadiazol-2-yl)ethyl)-8-(5-(difluoromethyl)-1H-1,2,3-triazol-1-yl)-3-(5-methylthiophen-2-yl)imidazo[1,2-a]pyridine-6-carboxamide]	100 to 1000	1 to 100
Cc1ccc(-c2cnc3c(N4CCC(C)CC4)cc(C(=O)N[C@@H](C)c4nnc[nH]4)cn23)s1 [Example 11, (S)—N-(1-(4H-1,2,4-Triazol-3-yl)ethyl)-8-(4-methylpiperidin-1-yl)-3-(5-methylthiophen-2-yl)imidazo[1,2-a]pyridine-6-carboxamide]	100 to 1000	1 to 100
Cc1ccc(-c2cnc3c(-c4c(C)noc4C)cc(C(=O)N[C@@H](C)c4nnc[nH]4)cn23)s1 [Example 102]	1 to 100	1 to 100
COc1ccccc1Nc1cc(C(=O)N[C@@H](C)c2nnc[nH]2)cn2c(-c3ccc(C)s3)cnc12 [Example 96]	100 to 1000	100 to 1000
Cc1ccc(-c2cnc3c(-c4cnn(C)c4)cc(C(=O)NCc4ccn(C)c(=O)c4)cn23)s1 [Example 99]	1000 to 10000	1 to 100
Cc1ccc(-c2cc(C(=O)N[C@@H](C)c3nnc[nH]3)cn3c(-c4ccc(C)s4)cnc23)s1 [Example 101]	1 to 100	1 to 100
Cc1ccc(-c2cnc3c(-n4nncc4C)cc(C(=O)N[C@H](c4nnc[nH]4)C(C)C)cn23)s1 [Example 74]	1000 to 10000	100 to 1000
Cc1ccc(CNC(=O)c2cc(-n3nncc3C(F)F)c3ncc(-c4ncc(C)s4)n3c2)cn1 [Example 36]	1 to 100	1 to 100
Cc1ccc(-c2cnc3c(Nc4ncc(C)s4)cc(C(=O)N[C@@H](C)c4nnc[nH]4)cn23)s1 [Example 94]	1000 to 10000	1 to 100
Cc1ncc(CNC(=O)c2cc(-n3nncc3C(C)C)c3ncc(-c4ccc(C)s4)n3c2)cn1 [Example 40]	1 to 100	> 10000
CCc1cnnn1-c1cc(C(=O)NCc2cnc(C)nc2)cn2c(-c3ncc(C)s3)cnc12 [Example 75]	100 to 1000	1 to 100
CC[C@H](NC(=O)c1cc(-n2nncc2C(C)C)c2ncc(-c3ccc(C)s3)n2c1)c1nnc[nH]1 [Example 61]	1 to 100	1 to 100
COc1ncc(CNC(=O)c2cc(-n3nncc3C(F)F)c3ncc(-c4ccc(C)s4)n3c2)cn1 [Example 35]	1 to 100	1 to 100
CCn1nccc1-c1cc(C(=O)N[C@@H](C)c2nnc[nH]2)cn2c(-c3ccc(C)s3)cnc12 [Example 103]	100 to 1000	1 to 100
Cc1ncc(CNC(=O)c2cc(-n3nncc3C(C)(F)F)c3ncc(-c4ccc(C)s4)n3c2)cn1 [Example 72]	1 to 100	1 to 100
CC[C@H](NC(=O)c1cc(-n2nncc2C(C)(C)C)c2ncc(-c3ccc(C)s3)n2c1)c1nnc[nH]1 [Example 67]	1 to 100	1 to 100
Cc1ncc(CNC(=O)c2cc(-n3nncc3C3CC3)c3ncc(-c4ccc(C)s4)n3c2)cn1 [Example 41]	1 to 100	1 to 100
CCc1cnnn1-c1cc(C(=O)NCc2cnc(C)nc2)cn2c(-c3ccc(C)s3)cnc12 [Example 33]	1 to 100	1 to 100
Cc1ccc(-c2cnc3c(-n4nncc4C(F)F)cc(C(=O)N[C@H](c4nnc[nH]4)C(C)C)cn23)s1 [Example 54]	1 to 100	1 to 100
Cc1ccc(CNC(=O)c2cc(-n3nncc3C(F)F)c3ncc(-c4ccc(C)o4)n3c2)cn1 [Example 48]	1 to 100	1 to 100
Cc1ccc(CNC(=O)c2cc(-n3nnnc3CO)c3ncc(-c4ccc(C)s4)n3c2)cn1 [Example 17, 8-(5-(Hydroxymethyl)-1H-tetrazol-1-yl)-N-((6-methylpyridin-3-yl)methyl)-3-(5-methylthiophen-2-yl)imidazo[1,2-a]pyridine-6-carboxamide]	100 to 1000	100 to 1000
